≈ marks a conversion by molar mass, not a printed value. Like-named read-outs stand apart in the source and are kept apart here.
Assays:
MSSA ATCC 29213 = experiment: In-house broth microdilution MIC screening; assay type: cell-based; details: Staphylococcus aureus; broth microdilution; read-out: MIC Value, MSSA ATCC 29213
[1] = Single-dose nebulized nose-only inhalation PK in healthy rats; assay type: in vivo, rat; details: male, Sprague Dawley, rat, in vivo; for Kp / Lung AUC0-∞ / Lung Cmax / Lung t1/2 / Plasma Cmax: inhaled or intranasal
Description: Rats were acclimated in the study facility for approximately 1 week prior to study start. Ten or eleven rats per cohort were loaded into the chamber at the time of dosing. […] An additional airflow set to 6 liters/min was admixed with the nebulizer output to further direct the test articles to the animals. […] The remaining port on the chamber was fit with an aerosol sampling filter for dose determination over a 5 min sampling period. The average dose delivered to the nose of each animal was calculated using an algorithm that was previously described ([49]). […] Animals were euthanized for collection of whole lungs and plasma at time points ranging from immediate postdose (IPD; approximately 30 min after dosing for nebulization) to 168 h postdose (7 days). Drugs were extracted from tissues using customized protein precipitation methods with an appropriate internal standard for each compound and transferred for analysis by LC-MS/MS (Sciex API4500 or API6500+ mass spectrometer [Sciex, Framingham, MA]). GraphPad Prism (La Jolla, CA) was used for statistical analyses and data plotting. […] The data were applied to a noncompartmental analysis after extravascular dosing input and fit to a linear up/log down model. Statistical analysis of in vitro intracellular and biofilm activity was based on a two-way ANOVA with a Bonferroni post test. In vivo statistical analysis was based on the Kolmogorov-Smirnov test.

[2] = assay type: physicochemical; details: pH 8
Description: 40 to the primary metabolite.
41 percent degradation is defined as follows:
[LLLLPPLL ] + [MMPPPPDDMM DDMMDDPPPP ]
45 Enzymes studied include :
108 Table S1: Enzyme hydrolysis of RV62 and RV94 was measured as a function of time in PBS (pH 8) at 37
109 °C. Control samples in the absence of enzyme were included as […]. Samples were analyzed
110 by HPLC detecting the parent RV derivative (RV62 or RV94).
RV Percent RV derivative remaining in HPLC chromatograph, % […]

[3] = test system: MRSA ATCC BAA 1556 (USA300); experiment: In-house broth microdilution MIC screening; assay type: cell-based, Staphylococcus aureus; details: Staphylococcus aureus; broth microdilution; read-out: MIC Value, MRSA ATCC BAA 1556

Compound | MIC (MSSA ATCC 29213) [µg/mL] | Pulmonary dose [1] [mg/kg] | Time to full conversion to hydrolysis product in the lung [1] [h] | Drug lung level at 120 h [1] [%] | Primary hydrolysis byproduct lung level at 120 h [1] [%] | Kp [1] | Lung AUC0-∞ [1] [µg·h/g] | Lung Cmax [1] [µg/g] | Lung t1/2 [1] [h] | Plasma Cmax [1] [ng/mL] | Percent RV derivative remaining in HPLC chromatograph ([2]; 0 h) [%] | Percent RV derivative remaining in HPLC chromatograph ([2]; 0.5 h) [%] | Percent RV derivative remaining in HPLC chromatograph ([2]; 1 h) [%] | Percent RV derivative remaining in HPLC chromatograph ([2]; 2 h) [%] | MIC [3] [µg/mL]
CCCCCCCCCCCC(=O)NCCNC1(C)CC(OC2C(Oc3c4cc5cc3Oc3ccc(cc3Cl)C(O)C3NC(=O)C(NC(=O)C5NC(=O)C(CC(N)=O)NC(=O)C(NC(=O)C(CC(C)C)NC)C(O)c5ccc(c(Cl)c5)O4)c4ccc(O)c(c4)-c4c(O)cc(O)cc4C(C(=O)O)NC3=O)OC(CO)C(O)C2O)OC(C)C1O (centres unmarked) [RV62] | 0.016 (≈ 0.00955 µM) | 0.15 | ≤ 24 | 0.1 | 107 | 1550 | 317 | 30 | 11 | 20 | 97.14 | 97.14 | 97.38 | 97.07 | 0.016 (≈ 0.00955 µM)
CCCCCCCCCCCCCC(=O)OCCNC1(C)CC(OC2C(Oc3c4cc5cc3Oc3ccc(cc3Cl)C(O)C3NC(=O)C(NC(=O)C5NC(=O)C(CC(N)=O)NC(=O)C(NC(=O)C(CC(C)C)NC)C(O)c5ccc(c(Cl)c5)O4)c4ccc(O)c(c4)-c4c(O)cc(O)cc4C(C(=O)O)NC3=O)OC(CO)C(O)C2O)OC(C)C1O (centres unmarked) [RV88] | 0.125 (≈ 0.0734 µM) | 0.12 | ≤ 24 | 1.5 | 71 | 1350 | 360 | 26 | 21 | 20 |  |  |  |  | 0.125 (≈ 0.0734 µM)

Reference: paper PMC8373216, “Development and Preclinical Evaluation of New Inhaled Lipoglycopeptides for the Treatment of Persistent Pulmonary Methicillin-Resistant Staphylococcus aureus Infections” (Antimicrobial Agents and Chemotherapy, 2021)
